Data reported in patent US20050208511A1, “DMBT1 as a clinical marker and uses thereof” (priority 2003, published 2005).

How the values were obtained:
DMBT1 [1] = experiment: Northern analysis of DMBT1 expression in rat uterus; type: in vivo, Sprague Dawley rats; details: 70 μg/kg/day estrone + 1 mg/kg/day compound, relative to estrone alone (FIG. 3A)
Procedure: (§1) Ten groups of 22-day-old female Sprague Dawley rats (three animals per group) were used to evaluate the effects of estrone, tamoxifen, raloxifene, and ICI 182780 on DMBT1 expression in the uterus. The following groups of rats were treated for three days as follows:
(§2) All treatments were delivered orally in 0.5% Methocel. After treatment the animals were euthanized and the uteri were collected, weighed, frozen in liquid nitrogen, and stored at −20° C. RNA was purified from the frozen uteri using 1.0 mL of TRIzol Reagent (Invitrogen) and a PowerGen 25 tissue homogenizer (Fisher Scientific), according to the manufacturer's instructions.
Northern analysis was performed to determine gene expression, including DMBT1 expression, in the uterus of control and treated rats. For gel electrophoresis, samples containing 2 μg of total RNA in a volume of 2 μL of water were added to 6 microliters of formaldehyde loading dye (Ambion) and incubated at 65° C. for 20 minutes. One microliter of a 0.1 mg/ml ethidium bromide solution was then added to each sample. […] The RNA was transferred to a Hybond-N membrane (Amersham) for […] by capillary transfer blotting, using 10×SSC (0.15 M Sodium citrate, pH 7.0, 1.5 M NaCl), after which the membranes were stained with ethidium bromide, destained with water, and photographed for lane loading comparison. The membranes were then air-dried and kept at room temperature until hybridization.
A glycerol stock of a bacterial clone carrying a plasmid (pINCY) containing the rat ebnerin (DMBT1) gene was obtained from Incyte Genomics (ID#: 0000101155000011). […] One colony was selected and used to inoculate 200 mL of Lennox L Broth (Sigma)+50 μg/mL ampicillin (Sigma). The liquid culture was grown overnight at 37° C. and the bacteria were collected by centrifugation. Purification of plasmid DNA was carried out using a QIAfilter plasmid maxi kit (QIAgen) according to the manufacturer's instructions.
Purified pINCY/DMBT1 was treated with the restriction enzymes EcoRI and NotI (Promega) for the preparation and isolation of a 1,174 bp DNA fragment containing the ebnerin probe (DMBT1). The products of the restriction enzyme reaction were separated by electrophoresis on a 1× TAE, 1% SeaKem Gold Agarose Reliant gel, and the band corresponding to the 1.174 kb DNA ebnerin clone was excised. The ebnerin DNA probe was purified from the gel slice using a QIAquick Gel Extraction Kit (QIAgen) according to the manufacturer's instructions. Bound DNA was eluted from the QIAgen column with 50 μL of elution buffer. The ebnerin DNA probe in the eluate was quantified by comparison to a DNA standard by gel electrophoresis. The ebnerin DNA probe was then diluted to a final concentration of 25 ng/μL.
Random-primed probe was made from 25 ng of the purified ebnerin DNA using a DECAprime II kit (Ambion) and Redivue α-^32P dATP (10 mCi/mL) (Amersham) according to the manufacturer's instructions, with the exception that the reaction was incubated for 30 minutes at 37° C. After adding EDTA to stop the reaction, the labeled probe was purified using a QIAquick Nucleotide Removal Kit (QIAgen) according to the manufacturer's instructions, with the final volume of eluted probe being 50 μL. Two microliters were counted in a scintillation counter to ensure optimal radionuclide incorporation (>2×10^6 cpm/μL).
The blot membrane as described in section A was wet in 2×SSC buffer (Sigma) for 15 minutes, then pre-hybridized in 10 mL RapidHyb (Amersham) at 65° C. for 20 minutes. The probe was boiled for 10 minutes, and 25 μL was added to 10 mL of RapidHyb, pre-warmed to 65° C. The blot membrane was added to the diluted probe solution and incubated, with rotation, in a hybridization oven for approximately 10 hours.
The membrane was removed from the probe-containing solution and rinsed twice with 2×SSPE +0.5% SDS+0.5% pyrophosphate at room temperature, and then washed once, with gentle agitation, for 30 minutes at room temperature in the same solution.

uterus = experiment: uterine weight in 22-day-old female rats; type: in vivo, Sprague Dawley rats; details: oral; for uterine weight on co-treatment with estrone: 70 μg/kg/day estrone + 1 mg/kg/day compound, three days (FIG. 1); for uterine weight: compound alone, three days, estrone 70 μg/kg/day, others 1 mg/kg/day, vs control (FIG. 1)
Procedure: as §1, §2
In rats, uteri increase in size under the proliferative influence of estrogen, and this increase in size can be measured by weighing the tissues.
Administration of the treatments and collection of tissue samples were carried out according to the procedure described in Example 2. RNA was purified, blotted and hybridized to radioactively labeled rat ebnerin cDNA as in described in Example 2.

DMBT1 [2] = experiment: immunohistochemical analysis of DMBT1 expression in rat uterus; type: in vivo, Wistar rats; details: OVX rats dosed six weeks; compared with estrogen (ethinyl estradiol)
Procedure: Tissues were trimmed and processed for paraffin embedding according to conventional methods. Five-micron sections were cut, mounted onto SuperFrost Plus+(Fisher Scientific, Pittsburgh, Pa.) microscopic slides and dried overnight. […] Briefly, tissue sections on microscopic slides were dewaxed and re-hydrated. Slides were microwaved for 5 min in Target buffer (Dako, Carpenturia, Calif.), cooled, placed in phosphate-buffered saline (PBS, pH 7.4) and treated with 3% (v/v) H2O2 for 10 min at room temperature. All incubations (30 min each) and washes were performed at room temperature. Normal rabbit blocking serum (Vector Labs, Burlingame, Calif.) was placed on all slides for 10 min. After a brief rinse in PBS, sections were treated with goat polyclonal DMBT1 primary antibody (1:25, Hypromatrix, Worcester, Mass.). Slides were then washed in PBS and treated with rabbit anti-goat biotinylated secondary antibodies (Vector Labs). […]
The rabbit polyclonal PCNA (proliferating cell nuclear antigen) antibody (1:4000; Sigma, St. Louis, Mo.) was detected using the HRP:SG detection system as described for routine single IHC, except the use of the SG chromogen (Vector Labs). […] DMBT1 was then detected using the Fast Red chromogen (Sigma, St. Louis, Mo.). […]

luminal epithelium = luminal epithelium thickening in rat uterus sections; type: in vivo, Wistar rats; details: OVX rats dosed six weeks, compared to sham and ovariectomized control; estrogen = ethinyl estradiol
Procedure: Mature, six week-old ovariectomized or sham-operated Wistar rats (Charles River) were dosed with ethinyl estradiol, tamoxifen or raloxifene for six weeks. Uteri were removed, sectioned for immunohistochemical analysis for DMBT1 expression using a polyclonal goat antibody against the human protein.
Tissues were trimmed and processed for paraffin embedding according to conventional methods. Five-micron sections were cut, mounted onto SuperFrost Plus+(Fisher Scientific, Pittsburgh, Pa.) microscopic slides and dried overnight. The protocols for routine single immunohistochemistry (IHC) have been described previously (D'Andrea et al., 2001, Biotechnic Histochem. 76:97-106). Briefly, tissue sections on microscopic slides were dewaxed and re-hydrated. Slides were microwaved for 5 min in Target buffer (Dako, Carpenturia, Calif.), cooled, placed in phosphate-buffered saline (PBS, pH 7.4) and treated with 3% (v/v) H2O2 for 10 min at room temperature. All incubations (30 min each) and washes were performed at room temperature. Normal rabbit blocking serum (Vector Labs, Burlingame, Calif.) was placed on all slides for 10 min. After a brief rinse in PBS, sections were treated with goat polyclonal DMBT1 primary antibody (1:25, Hypromatrix, Worcester, Mass.). Slides were then washed in PBS and treated with rabbit anti-goat biotinylated secondary antibodies (Vector Labs). After washing in PBS, the avidin-biotin-horseradish peroxidase complex reagent (HRP, Vector Labs) was added. All slides were washed and treated with 3,3′-diaminobenzidine (DAB, Biomeda, Foster City, Calif.) two times for 5 min each, rinsed in distilled water, and counterstained with hematoxylin.

endometrium = experiment: average endometrial thickness in treated monkeys; type: in vivo, cynomolgus monkeys (Macaca fascicularis); details: Ovx/E2 + PRM 10 mg/kg daily oral, 19 days
From the text: (§3) Adult female cynomolgus monkeys (Macaca fascicularis) were obtained from Covance Research Products. Following one complete menstrual cycle and in the follicular phase of the subsequent menstrual cycle, the animals were ovariectomized by a mid-ventral laparotomy. Ovariectomized (OVX) animals were subject to estrogen treatment after the fourth week following ovariectomy.
Animals and treatment were the same as Example 1 with the following exceptions. To study the effect of PRMs on the endometrium and gene expression, groups of three ovariectomized (OVX) monkeys were given an estrogen implant (E2), plus daily oral doses of the following PRMs for 19 days: mifepristone at 10 mg/kg/d; 17N11-DE (17β-N-substituted-11β-dimethylaminophenyl-estra-4,9-dien-3-one) 1.0, 3.0, or 10 mg/kg/d; 17N11-PE (17β-N-substituted-11β-piperidinylphenyl-estra-4,9-dien-3-one) at 1.0, 3.0, or 10 mg/kg/d. A placebo (0.5% methylcellulose) was administered as a control. 17N11-DE and 17N11-PE are two PRMs that have been described in PCT Publication No. WO 99/62928. Tissue samples were taken from endometria and myometria for histological analysis.

DMBT1 [3] = experiment: DNA microarray analysis of DMBT1 expression in endometrium of ovariectomized monkeys; type: in vivo, cynomolgus monkeys (Macaca fascicularis); details: for effect on estrogen-induced increase in DMBT1 mRNA levels: OVX monkeys with estrogen implant plus mifepristone 10 mg/kg/d, microarray analysis and PCR
From the text: as §3
Following this period, the OVX monkeys were euthanized and tissue biopsies were taken from endometria of the monkeys treated with estrogen and the placebo. (Details of the endometrial features in OVX monkeys and OVX+estrogen-treated monkeys is described in Example 4.) The biopsies were placed in sterile containers, snap frozen immediately in liquid nitrogen, and stored at −80° C. until processed. Total RNA was prepared from each endometrial tissue biopsy, as described below.
Total RNA was prepared from endometrial tissue biopsies (approximately 50 mg each) using RNAzol™ (Tel-Test, Friendswood, Tex.), as follows. Two milliliters of RNAzol™ were used per 100 mg of tissue. Tissues were homogenized for 2 to 3 minutes using a Tissue Tearor homogenizer (Model No. 985-370; BioSpec Products, Bartlesville, Okla.), then transferred to a glass mortar bowl. The tissues were ground with at least 10 strokes of the pestle until a clear suspension was obtained. The homogenates were transferred to a polypropylene conical flask, to which 0.1 mL of chloroform per 1 mL of homogenate was added. The mixtures were then shaken vigorously for 1 minute. The suspensions were then transferred to a 2 mL microcentrifuge tube and centrifuged for 15. minutes at 12000 g and at 4° C. in a fixed angle rotor using a Biofuge 17R centrifuge (Baxter, Deerfield, Ill.). The aqueous phase was carefully transferred to a new microcentrifuge tube. An equal volume of isopropanol was added to the aqueous phase, mixed gently, and incubated at 4° C. for 15 minutes. RNA was pelleted by centrifuging the mixture for 15 minutes at 12000 g and at 4° C. as described above. The supernatant was removed and the pellet washed with 75% (v/v) ethanol (Pharmco Products, Brookfield, Conn.), followed by centrifugation at 7500 g for 8 minutes at 4° C. The supernatant was removed, and then the RNA pellet was air-dried briefly and resuspended in RNase-free water (Promega, Madison, Wis.). The samples were then treated with Amplification Grade RNase-free DNase I to remove any residual DNA (Invitrogen, Carlsbad, Calif.). Specifically, twenty micrograms of RNA were treated in a reaction volume of 0.1 mL, containing 1× DNase I reaction buffer and 10 units of DNase I. The reaction continued at room temperature for 15 minutes. […]

DMBT1 [4] = experiment: quantitative RT-PCR of DMBT1 in uterus of ovariectomized rats; type: in vivo, Wistar rats; details: OVX rats, ethinyl estradiol + medroxyprogesterone acetate + 10 mg/kg mifepristone (FIG. 3B)
Procedure: Six weeks old ovariectomized Wistar rats (Charles River, Wilmington, Mass.) were dosed for either one day or six weeks with vehicle or test compounds. All treatments were delivered orally, once daily, in 0.5% methylcellulose or sesame oil. After treatment, the uteri were removed, total RNA was purified from the tissues using TRIzol reagent (Invitrogen, Carlsbad, Calif.) as directed by the manufacturer.
Quantitative reverse transcription-polymerase chain reactions (RT-PCR) of DMBT1 from rat RNA samples were carried out using a One-Step RT-PCR Master Mix Kit (Applied Biosystems, Foster City, Calif.) and an ABI Prism 7000 Sequence Detection System (Applied Biosystems), as described by the manufacturer. Commercially available primers and FAM-labeled MGB probes for human and rat DMBT1 (catalog numbers Hs00244827_ml and Rn00575705_ml, respectively) were obtained from Applied Biosystems (Foster City, Calif.). Messenger RNA levels were normalized against 18S ribosomal RNA levels determined using primers and a VIC- and TAMRA-labeled probe from the same vendor.

CC/C(=C(\c1ccccc1)c1ccc(OCCN(C)C)cc1)c1ccccc1 [tamoxifen]
DMBT1 expression on coadministration with estrone (DMBT1 [1]): increased slightly
uterine weight on co-treatment with estrone (uterus): lower uterine weights, as compared to estrone
uterine weight (uterus): increases uterine weight only moderately
cell levels of DMBT1 (immunostaining) in luminal epithelium (DMBT1 [2]): higher cell levels of DMBT1 than estrogen
thickening of the luminal epithelium (luminal epithelium): even more pronounced

CC#C[C@]1(O)CC[C@H]2[C@@H]3CCC4=CC(=O)CCC4=C3[C@@H](c3ccc(N(C)C)cc3)C[C@@]21C [mifepristone]
Endometrial Thickness (mm) (endometrium): shrinks to about the thickness of that seen with leuprolide-treated tissue
Endometrial Thickness (mm) (endometrium; listed as Mif): 1.17 mm
effect on estrogen-induced increase in DMBT1 mRNA levels (DMBT1 [3]): inhibited
effect on estrogen-induced increase in DMBT1 mRNA levels (DMBT1 [3]; listed as Mifepristone): prevented the increase in DMBT1 mRNA levels
repression of estrogen-induced DMBT1 mRNA levels (DMBT1 [3]; Ovx/E2 + 10 mg/kg, microarray (FIG. 7)): about 20 fold
effect on progestin blockade of DMBT1 mRNA increase (DMBT1 [4]): blocked in turn

O=C(c1ccc(OCCN2CCCCC2)cc1)c1c(-c2ccc(O)cc2)sc2cc(O)ccc12 [raloxifene]
DMBT1 expression on coadministration with estrone (DMBT1 [1]): additive increase
uterine weight on co-treatment with estrone (uterus): lower uterine weights, as compared to estrone
uterine weight (uterus): did not significantly affect uterine weight
cell levels of DMBT1 (immunostaining) in luminal epithelium (DMBT1 [2]): higher cell levels of DMBT1 than estrogen
thickening of the luminal epithelium (luminal epithelium): not with raloxifene treatment
